Data as given in patent publication US8759528B2, “Piperidine derivatives, pharmaceutical compositions and uses thereof” (Boehringer Ingelheim International GmbH, priority 2011, dated 2014).

What follows are compounds tested against T1, human ACC2 (Homo sapiens, UniProt O00763) (assay: ACC2 spectrophotometric 384 well assay (NADH-linked, coupled lactate dehydrogenase/pyruvate kinase)). Conditions: hACC2 construct lacking the 128 N-terminal amino acids; 25° C., 340 nm, 15 minutes.
T1 construct: lacks the 128 amino acids at the N-terminus for increased solubility (nt 385-6966 in Genbank entry AJ575592); made in house; host or cells: insect cells (baculoviral expression system)
Format: biochemical
Description: Spectrophotometric 384 Well Assay
Malonyl CoA formation by acetyl CoA carboxylases is stoichometrically linked to the consumption of ATP. ACC2 activity is measured in a NADH-linked kinetic method measuring ADP generated during the ACC reaction using a coupled lactate dehydrogenase/pyruvate kinase reaction.
For biological testing, a human ACC2 construct which lacks the 128 amino acids at the N-terminus for increased solubility (nt 385-6966 in Genbank entry AJ575592) is cloned. The protein is then expressed in insect cells using a baculoviral expression system. Protein purification is performed by anion exchange. All compounds are dissolved in dimethyl sulfoxide (DMSO) to a concentration of 10 mM.
Assay reactions are then carried out in 384-well plates, with hACC2 in an appropriate dilution and at final assay concentrations (f.c.) of 100 mM Tris (pH 7.5), 10 mM trisodium citrate, 25 mM KHCO3, 10 mM MgCl2, 0.5 mg/ml BSA, 3.75 mM reduced L-glutathione, 15 U/ml lactate dehydrogenase, 0.5 mM phosphoenolpyruvate, 15 U/ml pyruvate kinase, compounds at different concentrations at final DMSO concentrations of 1%.
The enzymatic reaction is then started by addition of a mixture of NADH, acetyl Coenzyme A (both […].) and ATP (500 uM f.c.). The decrease of the optical density (slope S) is then determined at 25° C. at a wavelength of 340 nm over 15 minutes in a spectrophotometric reader.
Each assay microtiter plate contains wells with vehicle instead of compound as controls for the non-inhibited enzyme (100% CTL; ‘HIGH’) and wells without acetyl-CoA as controls for non-specific NADH degradation (0% CTL; ‘LOW’).
The slope S is used for calculation of % CTL=(S(compound)−S(‘LOW’))/(S('HIGH)−S(‘LOW’))*100. Compounds will give values between 100% CTL (no inhibition) and 0% CTL (complete inhibition).
For IC50 value determination, the sample slope in the presence of the test compound after subtraction of the low controls (S(compound)−S(‘LOW’)) are used.
An IC50 value is derived from the compound slopes at different dosages after subtraction of the low controls (S(compound)−S(‘LOW’)) by non-linear regression curve fitting (equation y=(A+((B−A)/(1+((C/x)^D))))).

T1 sequence (O00763 129-2458 limits assumed): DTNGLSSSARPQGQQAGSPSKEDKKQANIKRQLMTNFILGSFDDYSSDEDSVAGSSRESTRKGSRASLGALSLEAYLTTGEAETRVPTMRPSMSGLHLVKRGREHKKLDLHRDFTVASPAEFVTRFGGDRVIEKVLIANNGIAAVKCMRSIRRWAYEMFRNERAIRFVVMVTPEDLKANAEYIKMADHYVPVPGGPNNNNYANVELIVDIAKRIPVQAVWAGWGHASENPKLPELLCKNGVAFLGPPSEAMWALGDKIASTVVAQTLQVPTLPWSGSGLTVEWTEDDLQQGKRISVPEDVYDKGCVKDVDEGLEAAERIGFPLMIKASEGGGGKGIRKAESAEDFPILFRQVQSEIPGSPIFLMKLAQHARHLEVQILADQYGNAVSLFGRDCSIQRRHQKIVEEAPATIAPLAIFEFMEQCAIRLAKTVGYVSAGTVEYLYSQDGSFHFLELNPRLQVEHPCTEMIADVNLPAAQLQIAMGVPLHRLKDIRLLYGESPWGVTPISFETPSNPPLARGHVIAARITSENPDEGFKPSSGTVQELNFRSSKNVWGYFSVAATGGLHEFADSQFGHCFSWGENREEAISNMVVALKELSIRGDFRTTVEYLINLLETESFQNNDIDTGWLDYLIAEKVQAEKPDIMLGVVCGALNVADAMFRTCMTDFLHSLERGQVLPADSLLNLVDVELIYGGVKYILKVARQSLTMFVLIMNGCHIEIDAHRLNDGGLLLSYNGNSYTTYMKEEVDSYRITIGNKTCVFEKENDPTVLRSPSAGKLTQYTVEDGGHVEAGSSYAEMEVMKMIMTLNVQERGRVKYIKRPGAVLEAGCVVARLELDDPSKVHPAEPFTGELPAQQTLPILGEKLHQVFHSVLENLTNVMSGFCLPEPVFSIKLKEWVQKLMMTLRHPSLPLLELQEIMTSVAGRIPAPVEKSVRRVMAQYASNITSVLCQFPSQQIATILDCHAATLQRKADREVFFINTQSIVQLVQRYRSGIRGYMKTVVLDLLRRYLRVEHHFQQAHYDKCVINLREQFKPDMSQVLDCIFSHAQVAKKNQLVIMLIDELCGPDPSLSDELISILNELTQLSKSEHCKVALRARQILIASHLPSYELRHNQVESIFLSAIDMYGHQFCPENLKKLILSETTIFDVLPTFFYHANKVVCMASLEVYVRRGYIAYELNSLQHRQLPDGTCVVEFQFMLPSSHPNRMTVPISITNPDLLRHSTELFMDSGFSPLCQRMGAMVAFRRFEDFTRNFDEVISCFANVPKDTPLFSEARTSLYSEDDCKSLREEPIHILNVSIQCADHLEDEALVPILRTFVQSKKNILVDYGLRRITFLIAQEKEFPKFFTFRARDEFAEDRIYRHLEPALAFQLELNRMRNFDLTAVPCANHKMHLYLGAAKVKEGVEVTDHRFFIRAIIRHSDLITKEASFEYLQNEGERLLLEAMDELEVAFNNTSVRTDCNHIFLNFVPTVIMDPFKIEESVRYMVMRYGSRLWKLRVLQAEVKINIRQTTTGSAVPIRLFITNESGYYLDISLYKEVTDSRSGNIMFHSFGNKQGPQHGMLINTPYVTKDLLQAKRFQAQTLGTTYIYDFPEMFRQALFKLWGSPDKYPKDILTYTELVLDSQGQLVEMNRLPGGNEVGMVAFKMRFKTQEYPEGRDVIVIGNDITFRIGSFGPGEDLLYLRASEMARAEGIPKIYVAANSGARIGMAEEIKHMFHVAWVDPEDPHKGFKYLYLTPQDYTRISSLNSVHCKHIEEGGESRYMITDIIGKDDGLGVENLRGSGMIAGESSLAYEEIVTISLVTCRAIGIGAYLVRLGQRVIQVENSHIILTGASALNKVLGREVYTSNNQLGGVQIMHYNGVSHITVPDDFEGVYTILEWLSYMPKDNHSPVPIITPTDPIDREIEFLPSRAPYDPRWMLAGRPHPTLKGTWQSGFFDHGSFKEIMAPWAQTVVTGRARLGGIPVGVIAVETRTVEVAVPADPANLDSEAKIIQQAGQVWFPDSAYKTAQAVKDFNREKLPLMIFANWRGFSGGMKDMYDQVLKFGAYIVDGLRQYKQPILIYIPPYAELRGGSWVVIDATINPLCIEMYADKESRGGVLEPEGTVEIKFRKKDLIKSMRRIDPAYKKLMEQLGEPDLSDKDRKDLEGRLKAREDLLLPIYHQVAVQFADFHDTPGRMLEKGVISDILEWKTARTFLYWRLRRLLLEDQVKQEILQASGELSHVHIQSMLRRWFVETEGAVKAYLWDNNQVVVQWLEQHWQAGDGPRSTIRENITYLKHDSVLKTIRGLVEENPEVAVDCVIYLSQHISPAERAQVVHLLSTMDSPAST

SMILES	IC50
CCOc1ccc(C2CCN(c3ccc(C(C)C(=O)NC4CC4)cc3)CC2)cc1 (stereo not drawn) [Example 7.3]	890 nM
COCCNC(=O)Cc1ccc(C2CCN(c3ccnc(N(C)C4CCCC4)n3)CC2)cc1 [Example 4.14]	4830 nM
CC(C(=O)NC1CC1)c1ccc(C2CCN(c3ccc(OCC4CC4)cc3)CC2)cc1 (stereo not drawn) [Example 1.14]	80 nM
CCOc1ccc(N2CCC(c3ccc(C(C)C(=O)Nc4ccccc4)cc3)CC2)cc1 (stereo not drawn) [Example 4.6]	80 nM
CCOc1ccc(N2CCC(c3ccc(C(C)C(N)=O)cc3)CC2)cc1 (stereo not drawn) [Example 4.17]	770 nM
CCOc1ccc(N2CCC(c3ccc(C(C)C(=O)N(C)CC)cc3)CC2)cc1 (stereo not drawn) [Example 4.5]	5210 nM
CCOc1ccc(N2CCC(c3ccc(C(C)C(=O)NC4CC4)cc3)CC2)c(F)c1 (stereo not drawn) [Example 1.13]	140 nM
CCNC(=O)C(C)c1ccc(N2CCC(c3ccc(OCC4CC4)cc3F)CC2)cc1 (stereo not drawn) [Example 7.2]	1010 nM
CC(C(=O)NC1CC1)c1ccc(C2CCN(c3ccc(OCC4CC4)cc3C#N)CC2)cc1 (stereo not drawn) [Example 3.1, 2-{4-[1-(2-Cyano-4-cyclopropylmethoxy-phenyl)-piperidin-4-yl]-phenyl}-N-cyclopropyl-propionamide]	150 nM
CCOc1ccc(N2CCC(c3ccc(C(C)C(=O)N(C)C)cc3)CC2)cc1 (stereo not drawn) [Example 4.4]	6650 nM
CN(c1nccc(N2CCC(c3ccc(CC(=O)NCc4ccccc4)cc3)CC2)n1)C1CCCC1 [Example 4.12]	7940 nM
CCCOc1ccc(N2CCC(c3ccc(C(C)C(=O)NC4CC4)cc3)CC2)c(C#N)c1 (stereo not drawn) [Example 3.4]	120 nM
CN(c1nccc(N2CCC(c3ccc(CC(=O)N4CCOCC4)cc3)CC2)n1)C1CCCC1 [Example 4.9]	5530 nM
CC(C)CNC(=O)Cc1ccc(C2CCN(c3ccnc(N(C)C4CCCC4)n3)CC2)cc1 [Example 4.13]	1860 nM
CN(c1nccc(N2CCC(c3ccc(CC(N)=O)cc3)CC2)n1)C1CCCC1 [Example 4.7]	1260 nM
CCOc1ccc(N2CCC(c3ccc(C(C)C(=O)NCC4CC4)cc3)CC2)cc1 (stereo not drawn) [Example 4.16]	650 nM
CN(c1nccc(N2CCC(c3ccc(CC(=O)NC4CCCC4)cc3)CC2)n1)C1CCCC1 [Example 4.10]	4180 nM
CN(c1nccc(N2CCC(c3ccc(CC(=O)Nc4ccccc4)cc3)CC2)n1)C1CCCC1 [Example 4.11]	720 nM
CCNC(=O)C(C)c1ccc(N2CCC(c3cccc(OCC4CC4)c3)CC2)cc1 (stereo not drawn) [Example 7.6]	2310 nM
CCN(C)C(=O)Cc1ccc(C2CCN(c3ccnc(N(C)C4CCCC4)n3)CC2)cc1 [Example 4.8]	12500 nM
CCOc1ccc(N2CCC(c3ccc(C(C)C(=O)NC4CC4)cc3)CC2)cc1 (stereo not drawn) [Example 4.1, N-Cyclopropyl-2-{4-[1-(4-ethoxy-phenyl)-piperidin-4-yl]-phenyl}-propionamide]	100 nM
CCOc1ccc(N2CCC(c3ccc(C(C)C(=O)NC4CC4)cc3)CC2)c(C#N)c1 (stereo not drawn) [Example 3.3]	140 nM
CCNC(=O)Cc1ccc(C2CCN(c3ccnc(N(C)C4CCCC4)n3)CC2)cc1 [Example 4.2]	400 nM
CCCOc1ccc(C2CCN(c3ccc(C(C)C(=O)NCC)cc3)CC2)c(C)c1 (stereo not drawn) [Example 7.10]	840 nM
CCNC(=O)C(C)c1ccc(N2CCC(c3cccc(OC4CCC4)c3)CC2)cc1 (stereo not drawn) [Example 7.8]	1650 nM

Next, values leading:

IC50	SMILES
5480 nM	CCNC(=O)C(C)c1ccc(C2CCN(c3ccnc(OCC)n3)CC2)cc1 (stereo not drawn) [Example 6.1, 2-{4-[1-(2-Ethoxy-pyrimidin-4-yl)-piperidin-4-yl]-phenyl}-N-ethyl-propionamide]
320 nM	CCCOc1ccc(N2CCC(c3ccc(C(C)C(=O)NCC)cc3)CC2)c(OC)c1 (stereo not drawn) [Example 1.7]
890 nM	CCNC(=O)C(C)c1ccc(C2CCN(c3ccc(OC(C)CC)cc3)CC2)cc1 (stereo not drawn) [Example 1.4]
3050 nM	CCNC(=O)C(C)c1ccc(C2CCN(c3ccnc(OC(C)C)n3)CC2)cc1 (stereo not drawn) [Example 6.2]
7630 nM	CCNC(=O)C(C)c1ccc(C2CCN(c3ccnc(NC(C)C)n3)CC2)cc1 (stereo not drawn) [Example 5.3]
340 nM	CCNC(=O)C(C)c1ccc(N2CCC(c3ccc(OC(C)C)cc3)CC2)cc1 (stereo not drawn) [Example 7.7]
240 nM	CCNC(=O)C(C)c1ccc(C2CCN(c3ccc(OCC4CC4)cc3)CC2)cc1 (stereo not drawn) [Example 1.3]
220 nM	CCCOc1ccc(C2CCN(c3ccc(C(C)C(=O)NCC)cc3)CC2)cc1 (stereo not drawn) [Example 7.4]
290 nM	CCCNC(=O)C(C)c1ccc(C2CCN(c3ccc(OCC)cc3)CC2)cc1 (stereo not drawn) [Example 4.15]
630 nM	CCNC(=O)C(C)c1ccc(C2CCN(c3ccnc(N(C)C)n3)CC2)cc1 (stereo not drawn) [Example 5.2]
360 nM	CCNC(=O)C(C)c1ccc(N2CCC(c3ccc(OCC4CC4)cc3)CC2)cc1 (stereo not drawn) [Example 7.5]
510 nM	CCNC(=O)C(C)c1ccc(C2CCN(c3ccnc(OCC)c3)CC2)cc1 (stereo not drawn) [Example 1.6]
120 nM	CCNC(=O)C(C)c1ccc(C2CCN(c3ccc(OC4CCC4)cc3)CC2)cc1 (stereo not drawn) [Example 1.5]
760 nM	CCOc1ccc(N2CCC(c3ccc(C(C)C(=O)NC)cc3)CC2)cc1 (stereo not drawn) [Example 4.3]
120 nM	CCNC(=O)C(C)c1ccc(N2CCC(c3ccc(OC4CCC4)cc3)CC2)cc1 (stereo not drawn) [Example 7.9]
370 nM	CCNC(=O)C(C)c1ccc(C2CCN(c3ccnc(N(C)C4CCCC4)n3)CC2)cc1 (stereo not drawn) [Example 5.1, 2-(4-{1-[2-(Cyclopentyl-methyl-amino)-pyrimidin-4-yl]-piperidin-4-yl}-phenyl)-N-ethyl-propionamide]
1000 nM	CCNC(=O)C(C)c1ccc(N2CCC(c3ccc(OCC)cc3)CC2)cc1 (stereo not drawn) [Example 7.1, 2-{4-[4-(4-Ethoxy-phenyl)-piperidin-1-yl]-phenyl}-N-ethyl-propionamide]
330 nM	CCNC(=O)C(C)c1ccc(C2CCN(c3ccc(OCC)cc3F)CC2)cc1 (stereo not drawn) [Example 1.12]
210 nM	CCNC(=O)C(C)c1ccc(C2CCN(c3ccc(OC4CC4)cc3)CC2)cc1 (stereo not drawn) [Example 1.2]
4840 nM	CCNC(=O)C(C)c1ccc(N2CCC(c3cccc(OCC)c3)CC2)cc1 (stereo not drawn) [Example 7.13]
750 nM	CCNC(=O)C(C)c1ccc(C2CCN(c3ccc(OCC4CC4)cc3OC)CC2)cc1 (stereo not drawn) [Example 2.1, 2-{-4-[1-(4-Cyclopropylmethoxy-2-methoxy-phenyl)-piperidin-4-yl]-phenyl}-N-ethyl-propionamide]
250 nM	CCNC(=O)C(C)c1ccc(C2CCN(c3ccc(OC4CCC4)cc3OC)CC2)cc1 (stereo not drawn) [Example 2.2]
1800 nM	CCNC(=O)C(C)c1ccc(N2CCC(c3cccc(OC(C)C)c3)CC2)cc1 (stereo not drawn) [Example 7.12]
450 nM	CCNC(=O)C(C)c1ccc(C2CCN(c3ccc(OC)cc3C#N)CC2)cc1 (stereo not drawn) [Example 3.2]
180 nM	CCCOc1ccc(N2CCC(c3ccc(C(C)C(=O)NCC)cc3)CC2)cc1 (stereo not drawn) [Example 1.8]
520 nM	CCNC(=O)C(C)c1ccc(C2CCN(c3ccc(OC4CC4)cc3OC)CC2)cc1 (stereo not drawn) [Example 1.11]
240 nM	CCNC(=O)C(C)c1ccc(C2CCN(c3ccc(OCC)cc3)CC2)cc1 (stereo not drawn) [Example 1.1, 2-{-4-[1-(4-Ethoxy-phenyl)-piperidin-4-yl]-phenyl}-N-ethyl-propionamide]
510 nM	CCNC(=O)C(C)c1ccc(C2CCN(c3ccc(OC(C)C)cc3OC)CC2)cc1 (stereo not drawn) [Example 1.9]
3850 nM	CCCOc1cccc(C2CCN(c3ccc(C(C)C(=O)NCC)cc3)CC2)c1 (stereo not drawn) [Example 7.11]
